Data set [1] is described as follows: Solubility of drug substance in simulated vaginal fluid. The class given is physicochemical. Conditions: fassgf or other biorelevant.
The nature of data set [2]: Compatibility of Diclofenac Sodium in Gel Formulation 1. The class given is physicochemical. Conditions: 2%, 3% gels, viscosity, pH, appearance. An excerpt: Variation in pH was reported between prototypes but was expected due to the chemical nature of the API.

The values below come from patent US20240189265A1, “COMPOSITIONS AND TECHNIQUES FOR VAGINAL INSERTION” (Daré Bioscience, Inc., priority 2021, published 2024).

As to `O=C(O)Cc1ccccc1Nc1c(Cl)cccc1Cl` [Diclofenac Sodium], in data set [1], the solubility (in general, the concentration that dissolves in the medium under given conditions) was about 16 µg/mL. The “compatibility with the Gel Formulation 1 composition” value in data set [2] is recorded as “Compatible”.
